Columns and labels:
ALK = ALK (Homo sapiens, UniProt Q9UM73); assay: Evaluation of the inhibitory activity of kinase; format: biochemical
Description: (§1) The samples of the salt obtained in Preparation Example 2 were tested according to the evaluation of the inhibitory activity of kinase described under Biological Assessment of the Patent Application No. WO 2011/147066.

BTK = BTK (Homo sapiens, UniProt Q06187); assay: Evaluation of the inhibitory activity of kinase; format: biochemical
Description: as §1

MET = MET (Homo sapiens, UniProt P08581); assay: Evaluation of the inhibitory activity of kinase; format: biochemical
Description: as §1

PDGFRα = PDGFRα (Homo sapiens, UniProt P16234); assay: Evaluation of the inhibitory activity of kinase; format: biochemical
Description: as §1

VEGFR2 = VEGFR2 (Homo sapiens, UniProt P35968); assay: Evaluation of the inhibitory activity of kinase; format: biochemical
Description: as §1

c-KIT = c-KIT (Homo sapiens, UniProt P10721); assay: Evaluation of the inhibitory activity of kinase; format: biochemical
Description: as §1

[1] = tested on: MV4-11 (FLT3-ITD mutation) subcutaneous tumor; assay: In-vivo anti-tumor test, MV4-11 subcutaneous tumor model; settings: orally administered once daily for 21 days
Description: (§2) According to the in-vivo anti-tumor test described under Biological Assessment of the Patent Application No. WO 2011/147066, the samples of the salt obtained in Preparation Example 2 were tested (specifically for FLT3-ITD acute myeloid leukemia, non-small cell lung cancer with EGFR activating mutation, and Ph-positive chronic myeloid leukemia, respectively).

[2] = tested on: human non-small cell lung cancer HCC827; assay: In-vivo anti-tumor test, non-small cell lung cancer model; settings: orally administered once daily for 30 days
Description: as §2

[3] = API-excipient compatibility test; format: physicochemical; settings: 14 days and 28 or 30 days; illumination, 60° C., high humidity; maximum single impurity, total impurity, color
Description: The active ingredient (compound of Formula B) was mixed evenly with various excipients mentioned in the present application respectively, and put in 10-ml injection vials. The injection vials were stored for 14 days and 28 days or 30 days under the conditions of an illumination of 4500 lux±500 lux/peripheral humidity, a high temperature of 60° C.±2° C./peripheral humidity, a high humidity of 90%±5% RH, and a temperature of 25° C.±2° C. respectively to detect the impurity content, so as to test the compatibility of the active ingredient with various excipients.

Chain of VEGFR2 (P35968 20-1356): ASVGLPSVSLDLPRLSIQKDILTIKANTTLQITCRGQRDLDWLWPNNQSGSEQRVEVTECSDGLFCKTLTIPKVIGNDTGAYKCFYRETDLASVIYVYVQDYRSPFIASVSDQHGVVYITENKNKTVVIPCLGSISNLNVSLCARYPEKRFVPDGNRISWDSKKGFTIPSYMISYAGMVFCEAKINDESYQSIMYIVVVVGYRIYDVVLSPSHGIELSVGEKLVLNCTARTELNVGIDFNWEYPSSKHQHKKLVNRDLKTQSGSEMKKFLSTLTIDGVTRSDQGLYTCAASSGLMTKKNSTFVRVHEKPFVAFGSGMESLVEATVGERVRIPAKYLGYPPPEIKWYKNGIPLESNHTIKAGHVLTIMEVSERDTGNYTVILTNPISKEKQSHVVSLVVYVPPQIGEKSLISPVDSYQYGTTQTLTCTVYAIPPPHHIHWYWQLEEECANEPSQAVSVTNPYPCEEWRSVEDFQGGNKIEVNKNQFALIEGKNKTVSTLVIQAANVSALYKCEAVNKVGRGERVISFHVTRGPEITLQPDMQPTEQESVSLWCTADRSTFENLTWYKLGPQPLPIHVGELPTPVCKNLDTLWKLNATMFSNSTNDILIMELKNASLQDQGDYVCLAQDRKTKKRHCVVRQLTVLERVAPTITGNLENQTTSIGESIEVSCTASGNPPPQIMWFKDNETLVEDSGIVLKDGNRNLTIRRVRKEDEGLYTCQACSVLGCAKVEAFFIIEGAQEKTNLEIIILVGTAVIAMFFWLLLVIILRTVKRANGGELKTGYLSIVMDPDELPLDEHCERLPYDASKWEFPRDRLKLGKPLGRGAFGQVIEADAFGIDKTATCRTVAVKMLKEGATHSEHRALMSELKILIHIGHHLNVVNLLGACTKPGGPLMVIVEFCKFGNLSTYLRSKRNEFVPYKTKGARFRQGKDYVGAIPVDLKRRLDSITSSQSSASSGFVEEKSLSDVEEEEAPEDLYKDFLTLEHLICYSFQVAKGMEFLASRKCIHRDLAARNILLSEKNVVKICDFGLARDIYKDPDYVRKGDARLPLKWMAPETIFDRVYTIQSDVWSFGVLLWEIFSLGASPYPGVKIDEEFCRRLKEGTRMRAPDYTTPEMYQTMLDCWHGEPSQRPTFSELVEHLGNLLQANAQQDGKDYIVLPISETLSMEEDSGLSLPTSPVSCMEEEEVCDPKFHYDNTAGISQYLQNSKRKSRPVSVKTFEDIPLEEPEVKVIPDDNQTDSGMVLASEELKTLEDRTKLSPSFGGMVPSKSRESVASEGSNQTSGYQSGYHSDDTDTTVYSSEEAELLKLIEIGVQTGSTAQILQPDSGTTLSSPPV
Chain of BTK (Q06187 whole entry): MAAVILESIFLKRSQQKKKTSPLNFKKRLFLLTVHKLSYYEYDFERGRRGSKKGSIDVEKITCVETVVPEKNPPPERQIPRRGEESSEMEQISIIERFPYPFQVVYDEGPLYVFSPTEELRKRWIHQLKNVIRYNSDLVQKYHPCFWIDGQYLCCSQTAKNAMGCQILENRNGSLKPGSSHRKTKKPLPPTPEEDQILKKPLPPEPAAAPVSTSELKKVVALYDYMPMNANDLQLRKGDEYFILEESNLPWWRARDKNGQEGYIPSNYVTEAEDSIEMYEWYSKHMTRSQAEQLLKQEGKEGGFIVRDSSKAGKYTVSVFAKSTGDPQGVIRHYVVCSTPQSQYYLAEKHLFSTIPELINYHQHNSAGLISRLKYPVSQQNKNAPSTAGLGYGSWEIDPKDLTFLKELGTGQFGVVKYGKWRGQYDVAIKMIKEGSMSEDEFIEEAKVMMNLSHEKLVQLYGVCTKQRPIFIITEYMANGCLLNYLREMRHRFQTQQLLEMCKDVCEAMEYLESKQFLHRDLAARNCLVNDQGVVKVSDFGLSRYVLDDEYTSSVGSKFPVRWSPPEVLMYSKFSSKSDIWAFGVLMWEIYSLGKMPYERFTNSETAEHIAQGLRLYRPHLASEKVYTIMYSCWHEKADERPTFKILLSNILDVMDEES
Chain of MET (P08581 25-1390): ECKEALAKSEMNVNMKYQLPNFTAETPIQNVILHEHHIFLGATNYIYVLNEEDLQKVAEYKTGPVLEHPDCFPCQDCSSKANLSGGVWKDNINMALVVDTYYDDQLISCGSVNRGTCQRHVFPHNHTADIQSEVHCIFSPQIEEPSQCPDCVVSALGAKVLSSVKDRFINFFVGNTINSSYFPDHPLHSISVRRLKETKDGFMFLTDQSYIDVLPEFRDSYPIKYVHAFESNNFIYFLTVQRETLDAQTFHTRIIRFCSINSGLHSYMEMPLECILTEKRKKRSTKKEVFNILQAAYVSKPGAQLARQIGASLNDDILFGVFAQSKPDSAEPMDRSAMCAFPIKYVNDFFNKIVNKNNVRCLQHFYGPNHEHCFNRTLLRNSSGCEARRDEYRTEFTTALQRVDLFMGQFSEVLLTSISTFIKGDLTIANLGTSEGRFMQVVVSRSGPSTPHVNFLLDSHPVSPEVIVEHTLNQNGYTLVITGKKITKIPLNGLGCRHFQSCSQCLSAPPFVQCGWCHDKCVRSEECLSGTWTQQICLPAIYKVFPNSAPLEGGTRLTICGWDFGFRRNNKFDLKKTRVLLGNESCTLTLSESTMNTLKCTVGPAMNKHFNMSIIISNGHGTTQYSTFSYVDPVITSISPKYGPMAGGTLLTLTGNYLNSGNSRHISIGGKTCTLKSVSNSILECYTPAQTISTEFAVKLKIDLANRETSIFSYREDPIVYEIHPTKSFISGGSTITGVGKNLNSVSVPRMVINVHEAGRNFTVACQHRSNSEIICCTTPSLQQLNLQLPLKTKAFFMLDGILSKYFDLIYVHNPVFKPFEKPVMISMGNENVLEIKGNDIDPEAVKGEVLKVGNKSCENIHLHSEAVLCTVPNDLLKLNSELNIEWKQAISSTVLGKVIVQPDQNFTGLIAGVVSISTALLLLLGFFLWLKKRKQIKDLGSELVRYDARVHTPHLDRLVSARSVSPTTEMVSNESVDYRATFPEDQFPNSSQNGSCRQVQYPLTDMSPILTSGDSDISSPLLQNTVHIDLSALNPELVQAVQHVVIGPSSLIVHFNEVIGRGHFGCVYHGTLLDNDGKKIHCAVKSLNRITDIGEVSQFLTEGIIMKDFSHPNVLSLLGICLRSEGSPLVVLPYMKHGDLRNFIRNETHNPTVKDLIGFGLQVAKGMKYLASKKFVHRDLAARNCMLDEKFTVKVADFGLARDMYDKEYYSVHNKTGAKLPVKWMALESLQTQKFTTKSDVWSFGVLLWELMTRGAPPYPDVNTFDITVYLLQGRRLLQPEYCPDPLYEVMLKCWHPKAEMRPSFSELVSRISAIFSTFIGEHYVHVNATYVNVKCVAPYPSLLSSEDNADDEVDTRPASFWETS
Chain of c-KIT (P10721 26-976): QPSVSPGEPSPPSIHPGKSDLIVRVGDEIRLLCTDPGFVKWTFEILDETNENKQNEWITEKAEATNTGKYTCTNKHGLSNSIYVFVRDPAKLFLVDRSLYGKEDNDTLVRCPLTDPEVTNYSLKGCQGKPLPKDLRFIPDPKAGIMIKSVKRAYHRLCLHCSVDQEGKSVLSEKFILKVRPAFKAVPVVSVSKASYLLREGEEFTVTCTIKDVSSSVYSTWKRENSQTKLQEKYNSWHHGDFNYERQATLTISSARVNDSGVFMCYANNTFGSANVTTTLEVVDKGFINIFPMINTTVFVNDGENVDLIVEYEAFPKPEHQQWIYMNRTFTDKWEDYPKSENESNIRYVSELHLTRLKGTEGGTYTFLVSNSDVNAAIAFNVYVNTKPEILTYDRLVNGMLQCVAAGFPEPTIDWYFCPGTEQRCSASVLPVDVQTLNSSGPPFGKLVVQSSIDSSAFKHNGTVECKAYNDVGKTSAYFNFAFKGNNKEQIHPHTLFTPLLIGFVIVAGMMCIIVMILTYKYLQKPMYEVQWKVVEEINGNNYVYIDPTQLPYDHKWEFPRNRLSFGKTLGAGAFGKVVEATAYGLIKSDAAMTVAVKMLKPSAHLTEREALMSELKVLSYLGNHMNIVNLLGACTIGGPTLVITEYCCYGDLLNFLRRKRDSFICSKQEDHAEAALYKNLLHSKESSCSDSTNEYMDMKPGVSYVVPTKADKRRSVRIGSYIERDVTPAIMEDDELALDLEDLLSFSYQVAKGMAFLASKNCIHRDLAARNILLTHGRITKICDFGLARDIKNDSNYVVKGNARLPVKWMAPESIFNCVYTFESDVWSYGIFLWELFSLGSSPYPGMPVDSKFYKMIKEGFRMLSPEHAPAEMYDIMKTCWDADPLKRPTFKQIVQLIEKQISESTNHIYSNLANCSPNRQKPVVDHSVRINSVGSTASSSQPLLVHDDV

inhibiting the activity of kinase (ALK): capable of inhibiting
inhibiting the activity of kinase (BTK): capable of inhibiting
inhibiting the activity of kinase (MET): capable of inhibiting
inhibiting the activity of kinase (PDGFRα): capable of inhibiting
inhibiting the activity of kinase (VEGFR2): capable of inhibiting
inhibiting the activity of kinase (c-KIT): capable of inhibiting
compatibility of the active ingredient with various excipients [3]: good compatibility
Compound: CC(C)n1c(Nc2cccnc2)nc2cnc(Nc3ccc(N4CCN(C)CC4)cc3)nc21 [Preparation Example 2]
effect on tumor growth ([1]; 5 mg/kg): completely inhibit the tumor growth
effect on tumor growth ([1]; 10 mg/kg): complete tumor regression
effect on tumor growth ([1]; 20 mg/kg): complete tumor regression
effect on tumor (compared with the initial tumor) ([2]; 7.5 mg/kg): tumor shrinkage
effect on tumor (compared with the initial tumor) ([2]; 15 mg/kg): tumor shrinkage
effect on tumor (compared with the initial tumor) ([2]; 30 mg/kg): almost complete tumor regression
effect on growth of HCC827, dose dependence ([2]; 7.5, 15 and 30 mg/kg): dose-dependently inhibit the growth
